According to US6355799B1, “Substituted benzene compounds, process for their preparation, and herbicidal and defoliant compositions containing them” (ISK Americas Incorporated, priority 1997, dated 2002):

Key:
Assay type in all cases: in vivo
[1] = test system: redroot pigweed (Amaranthus retroflexus, AMARE); test: Pre-emerge test, greenhouse herbicide activity screening; conditions: 63 g ai/ha; rated 14 days after application; 0 = no damage, 100 = complete death
How it was run: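 Compounds in acetone were track-sprayed at 15-1000 g ai/ha (187 l/ha) on sandy loam pots: pre-emerge one day after seeding, post-emerge at 2-3 leaf stage with 0.25% v/v non-ionic surfactant. Phytotoxicity was rated 14 days later on a 0 (no damage) to 100 (complete death) scale.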

[2] = test system: field corn (Zea mays L., var. Dekalb 535, CORN); test: Pre-emerge test, crop safety; conditions: 63 g ai/ha; rated 14 days after application; 0 = no damage, 100 = complete death
How it was run: (§1)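 Sandy loam pots; pre-emerge: sown 1 d pre-spray, surface-watered after, then bottom-watered. Post-emerge: sown 8–21 d before, 2–3 leaf stage, + 0.25% v/v NIS, bottom-watered. Acetone, 187 l/ha track spray, 15–1000 g ai/ha. 0–100 injury score, day 14.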

[3] = test system: upland rice (Oryza sp., var. Tebonnet, RICE); test: Pre-emerge test, crop safety; conditions: 63 g ai/ha; rated 14 days after application; 0 = no damage, 100 = complete death
How it was run: as §1

[4] = test system: large crabgrass (Digitaria sanguinalis, DIGSA); test: Post-emerge test, greenhouse herbicide activity screening; conditions: post-emerge, 63 g ai/ha, 14 days after application, rating scale 0-100
How it was run: (§2)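 Plants grown in 10 cm pots of sandy loam mix received acetone-dissolved compounds through a moving flat-fan nozzle. Doses ranged from 15 to 1000 g ai/ha. Pre-emerge pots were seeded one day earlier, post-emerge pots 8–21 days earlier. Fourteen days on, each pot was graded 0–100 for damage.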

[5] = test system: ivyleaf morningglory (Ipomoea hederacea, IPOHE); test: as above; conditions: post-emerge, 63 g ai/ha, 14 days after application, rating scale 0-100
How it was run: as §2

[6] = test system: lambsquarters (Chenopodium album, CHEAL); test: as above; conditions: post-emerge, 63 g ai/ha, 14 days after application, rating scale 0-100
How it was run: as §2

[7] = test system: green foxtail (Setaria viridis, SETVI); test: as above; conditions: post-emerge, 63 g ai/ha, 14 days after application, rating scale 0-100
How it was run: as §2

[8] = test system: sicklepod (Cassia obtusifolia, CASOB); test: as above; conditions: post-emerge, 63 g ai/ha, 14 days after application, rating scale 0-100
How it was run: as §2

[9] = test system: redroot pigweed (Amaranthus retroflexus, AMARE); test: as above; conditions: post-emerge, 63 g ai/ha, 14 days after application, rating scale 0-100
How it was run: as §2

[10] = test system: common ragweed (Ambrosia artemisizfolia L., AMBEL); test: as above; conditions: post-emerge, 63 g ai/ha, 14 days after application, rating scale 0-100
How it was run: as §2

[11] = test system: johnsongrass (Sorghum halepense, SORHA); test: as above; conditions: post-emerge, 63 g ai/ha, 14 days after application, rating scale 0-100
How it was run: as §2

[12] = test system: velvetleaf (Abutilon theophrasti, ABUTH); test: as above; conditions: post-emerge, 63 g ai/ha, 14 days after application, rating scale 0-100
How it was run: as §2

[13] = test system: barnyardgrass (Echinochloa crus-galli, ECHCG); test: as above; conditions: post-emerge, 63 g ai/ha, 14 days after application, rating scale 0-100
How it was run: as §2

[14] = test system: field corn (Zea mays L., var. Dekalb 535, CORN); test: Post-emerge test, crop safety; conditions: post-emerge, 63 g ai/ha, 14 days after application, rating scale 0-100
How it was run: (§3)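 Applied at 15–1000 g ai/ha from acetone in 187 l/ha spray volume. Post-emergence applications included 0.25% v/v non-ionic surfactant and reached plants sown 8–21 days before. Pre-emergence applications were incorporated by surface watering. Efficacy or crop damage was rated on a 0–100 scale after 14 days.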

[15] = test system: upland rice (Oryza sp., var. Tebonnet, RICE); test: Post-emerge test, crop safety; conditions: post-emerge, 63 g ai/ha, 14 days after application, rating scale 0-100
How it was run: as §3

[16] = test system: large crabgrass (Digitaria sanguinalis, DIGSA); test: Pre-emerge test, greenhouse herbicide activity screening; conditions: 63 g ai/ha; rated 14 days after application; 0 = no damage, 100 = complete death
How it was run: as §3

[17] = test system: ivyleaf morningglory (Ipomoea hederacea, IPOHE); test: as above; conditions: 63 g ai/ha; rated 14 days after application; 0 = no damage, 100 = complete death
How it was run: as §3

[18] = test system: lambsquarters (Chenopodium album, CHEAL); test: as above; conditions: 63 g ai/ha; rated 14 days after application; 0 = no damage, 100 = complete death
How it was run: as §3

[19] = test system: green foxtail (Setaria viridis, SETVI); test: as above; conditions: 63 g ai/ha; rated 14 days after application; 0 = no damage, 100 = complete death
How it was run: as §3

[20] = test system: sicklepod (Cassia obtusifolia, CASOB); test: as above; conditions: 63 g ai/ha; rated 14 days after application; 0 = no damage, 100 = complete death
How it was run: as §3

[21] = test system: common ragweed (Ambrosia artemisizfolia L., AMBEL); test: as above; conditions: 63 g ai/ha; rated 14 days after application; 0 = no damage, 100 = complete death
How it was run: as §3

[22] = test system: johnsongrass (Sorghum halepense, SORHA); test: as above; conditions: 63 g ai/ha; rated 14 days after application; 0 = no damage, 100 = complete death
How it was run: as §3

[23] = test system: velvetleaf (Abutilon theophrasti, ABUTH); test: as above; conditions: 63 g ai/ha; rated 14 days after application; 0 = no damage, 100 = complete death
How it was run: as §3

[24] = test system: barnyardgrass (Echinochloa crus-galli, ECHCG); test: as above; conditions: 63 g ai/ha; rated 14 days after application; 0 = no damage, 100 = complete death
How it was run: as §3

COc1c(Cl)cc(F)c(-n2c(=O)cc(C(F)(F)F)n(C)c2=O)c1NC(=O)c1c(F)c(F)c(F)c(F)c1F [2-52]
Pre-emerge Herbicidal Activity, phytotoxicity rating (0-100), AMARE [1]: 100
Pre-emerge phytotoxicity rating (0-100), crop damage, CORN [2]: 0
Pre-emerge phytotoxicity rating (0-100), crop damage, RICE [3]: 0
phytotoxicity rating DIGSA [4]: 0
phytotoxicity rating IPOHE [5]: 10
phytotoxicity rating CHEAL [6]: 10
phytotoxicity rating SETVI [7]: 0
phytotoxicity rating CASOB [8]: 0
phytotoxicity rating AMARE [9]: 30
phytotoxicity rating AMBEL [10]: 20
phytotoxicity rating SORHA [11]: 0
phytotoxicity rating ABUTH [12]: 30
phytotoxicity rating ECHCG [13]: 0
phytotoxicity rating CORN [14]: 0
phytotoxicity rating RICE [15]: 0
Pre-emerge Herbicidal Activity, phytotoxicity rating (0-100), DIGSA [16]: 0
Pre-emerge Herbicidal Activity, phytotoxicity rating (0-100), IPOHE [17]: 0
Pre-emerge Herbicidal Activity, phytotoxicity rating (0-100), CHEAL [18]: 50
Pre-emerge Herbicidal Activity, phytotoxicity rating (0-100), SETVI [19]: 40
Pre-emerge Herbicidal Activity, phytotoxicity rating (0-100), CASOB [20]: 0
Pre-emerge Herbicidal Activity, phytotoxicity rating (0-100), AMBEL [21]: 0
Pre-emerge Herbicidal Activity, phytotoxicity rating (0-100), SORHA [22]: 0
Pre-emerge Herbicidal Activity, phytotoxicity rating (0-100), ABUTH [23]: 10
Pre-emerge Herbicidal Activity, phytotoxicity rating (0-100), ECHCG [24]: 0
